Measurements published in patent US12258477B2, “Silicon-substituted rhodamine dyes and dye conjugates” (Life Technologies Corporation, priority 2018, dated 2025).
“Also recorded” adds a separate entry of the source.

Assays:
[1] = Excitation and emission maxima of compounds dissolved in solvents; assay type: physicochemical
Experimental: Certain compounds were tested when dissolved in solvents. Three replicates were performed to determine the excitation and emission maxima.

[2] = test system: tubulin; test: Tubulin staining of live cells with docetaxel probes vs SiR-Taxol (Examples 3, 13); assay type: cell-based; conditions: live HeLa, 0.5 μM, 30 min 37 °C
Experimental: The fluorescence intensity of Compound 5 (a tubulin probe using docetaxel as the target-binding moiety) was compared to SiR-Taxol (Spirochrome, Switzerland). Live HeLa cells were stained with 0.5 μM Compound 5 or SiR-Taxol for 30 minutes at 37° C. and prepared for imaging. Images are shown in FIGS. 4A-4B (stained with Compound 5), and FIGS. 4C-4D (stained with SiR-Taxol).
The fluorescence intensity of two diasteromers of Compound 5 and a mixture of two isomers was compared to SiR-Taxol (Spirochrome, Switzerland). Live HeLa cells were stained with 0.5 μM of each compound for 30 minutes at 37° C. and prepared for imaging.

[3] = test system: Fixed HeLa cells; test: Fixed cell nuclear staining and photostability vs TO-PRO-3 (Example 4); assay type: cell-based; conditions: 1 μM, Cy5 channel
Experimental: The fluorescence intensity and photostability of Compound 7 were compared with TO-PRO-3, a fixed cell nucleic acid stain with far-red fluorescence. Fixed HeLa cells were stained with 1 μM Compound 7 or TO-PRO-3 for 30 minutes at RT and prepared for imaging using the Cy5 channel of a fluorescence microscope.

[4] = Fluorescence characteristics of goat anti-mouse (GAM) IgG conjugates in PBS; assay type: physicochemical; conditions: for Max Abs / Max Em: GAM IgG conjugate in PBS; for Absorption of IgG conjugates / Emission of IgG conjugates: Table 6, IgG conjugates in PBS
Experimental: (§1) The fluorescence characteristics of various disclosed compounds and ALEXA FLUOR™ 647 dye (AF647) dissolved in water (dye only) or as goat anti-mouse (GAM) IgG conjugates dissolved in phosphate buffered saline (PBS) were determined. Three replicates were performed to determine the excitation and emission maxima and quantum yield. Quantum yield was measured for the dye only samples.
The effect of conjugation of an SiR, in this example Compounds 8, 10A, and 12, to IgG on absorbance (shown in FIG. 11A) and on emission (shown in FIG. 11B) maxima were compared with IgG-AF647. The absorption and emission maxima of the SiR-conjugates (665 nm/690 nm) are approximately 20 nm red-shifted compared with AF647 conjugate. The emission maximum shifted 15 nm to red.

[5] = Fluorescence characteristics, dye only dissolved in water; assay type: physicochemical; conditions: for Emission in water (λem) / absorption in water (λabs): Table 6, in water; for shift of absorption maxima to blue when each vinyl group was changed to a methyl: relative to Compound 11
Experimental: as §1
Experiments were performed to examine the effect of different SiR substitution patterns on absorption maxima using Compounds 10A, 11, 12, and 13. One or both of the vinyl groups of Compound 11 are replaced with methyl in Compounds 10A and 12, respectively. In Compound 13, one methyl group on each of the two exocyclic amines was eliminated relative to Compound 12. […] A 30 nm shift was observed when one methyl group on each of the two exocyclic amines was eliminated (Table 6). Therefore, modification of SiR dyes using groups linked to the SiR moiety through the Si have a smaller effect than the removal of methyl groups.

[6] = test system: A549 cells; test: Photobleaching of dye-labeled secondary antibody conjugates in fixed cells without anti-fade medium; assay type: cell-based; conditions: GAM antibody conjugates (13 DOL 4.7, 14 DOL 4.0, AF647 DOL 4.9); over 700 seconds exposure, no anti-fade medium
Experimental: A549 cells were plated at a density of 5,000 cells per well on Greiner 96 well plates and allowed to adhere overnight. The following day, they were treated for two hours at 37° C. with 50 μM etoposide to induce phosphorylation of pH2AX for antibody probing, then fixed for 20 minutes at room temperature in 4% PFA, prepared in PBS. After fixation, cells were rinsed 3× in PBS and permeabilized for 20 minutes with 0.1% Triton X-100, prepared in PBS. Following Triton treatment, cells were washed 3× in PBS and placed in blocking solution, made with 3% BSA in PBS. Each plate was treated with primary antibody, prepared in blocking solution at 5 μg/mL, either […]. Following incubation with primary antibody, cells were washed 3× in PBS and stored in blocking solution before probing with secondary antibody. Secondary antibody labeled with Compound 13 (DOL 4.7); Compound 14 (DOL 4.0) or AF647 (DOL 4.9) was prepared from 5 μg/mL in blocking solution and cells were incubated for one hour at room temperature before washing 3× in PBS and moving plates to the CX-5 CellInsight for quantification of signal. The fluorescent signal data was collected every second for over 700 seconds' period. […]
Fluorescence intensity was monitored in samples mounted without anti-fade medium over a period of about 12 minutes of exposure to excitatory light.

[7] = test system: Live HeLa cells; test: Live cell nuclear staining, fluorescence microscopy vs SiR-Hoechst (Example 2); assay type: cell-based; conditions: 1 μM and 2 μM
Experimental: The fluorescence intensity of Compound 4 was compared to SiR-Hoechst (Spirochrome, Switzerland) using fluorescence microscopy. Live HeLa cells were stained with SiR-Hoechst or Compound 4 at 1 μM or 2 μM for 30 minutes at 37° C. After washing with LCIS buffer to remove excess dye, images from 5 replicates were collected using the Cy5 channel of a fluorescence microscope and analyzed using HCS Studio software. Representative images of cells are shown in FIGS. 3A-3B (stained with SiR-Hoechst) and FIGS. 3C-3D (stained with Compound 4). […] The mean nuclear signal intensity was 48% higher in the cells stained with Compound 4 than in the cells stained with SiR-Hoechst, based on averaging the ratios of fluorescence intensity at 1 μM and 2 μM.

[8] = test system: Live HeLa cells; test: Live cell nuclear staining with ESP-SiR isomers, HeLa (Example 12); assay type: cell-based; conditions: 1 μM, 30 min 37 °C
Experimental: The fluorescence intensity of each isomer of Compound 4 (Compound 4B and Compound 4C) was compared using fluorescence microscopy. A DMSO stock solution (1 mM) was used to prepare solutions of each isomer to a final concentration of 5, 2.5, 1.25 and 0.6 μM in PBS containing probenecid.
Live HeLa or A549 cells were stained with each concentration of isomer for 30 minutes at 37° C. After washing with LCIS buffer to remove excess dye, images from 5 replicates were collected using the Cy5 channel of a fluorescence microscope and analyzed using HCS Studio software. […] The mean nuclear signal intensity was almost 2-fold higher in both cell types stained with Compound 4B than in the cells stained with Compound 4C at each of the concentrations tested.
The fluorescence intensity of Compound 4B and 4C was compared to SiR-Hoechst (Spirochrome, Switzerland) using fluorescence microscopy. Live HeLa cells were stained with SiR-Hoechst or Compound 4B or 4C at 1 μM for 30 minutes at 37° C. After washing with LCIS buffer to remove excess dye, images from 5 replicates were collected using the Cy5 and D API channels of a fluorescence microscope and analyzed using HCS Studio software.

[9] = test system: tubulin; test: Immunofluorescence tubulin staining with dye-labeled antibody conjugates vs AF647 (Example 9); assay type: cell-based, mouse
Experimental: The fluorescence intensity of SiR conjugates, Compound 10A (DOL=15) and Compound 10A (DOL=10), where DOL is the degree of labeling, were compared to an AF647 conjugate using fluorescence microscopy. Live mouse cells were stained with mouse anti-tubulin conjugated to AF647 (shown in FIG. 12A), or mouse anti-tubulin conjugated with Compound 10A (DOL=15 shown in FIG. 12B) at increasing concentrations for 60 minutes at 25° C. After washing with PBS buffer to remove excess dye, images were collected using the Cy5 channel of a fluorescence microscope and analyzed using integrated software. […] The SiR dyes gave images 6-8 fold dimmer that AF647 in the Cy5 channel, consistent with the shifted maxima discussed above. […] Little to no photobleaching was observed during imaging.

Compound | Max Abs [4] [nm] | Max Em [4] [nm] | Absorption of IgG conjugates [4] [nm] | Emission of IgG conjugates [4] [nm] | Max Abs ([5]; Dye Only in water) [nm] | Max Em ([5]; Dye Only in water) [nm] | Quantum Yield ([5]; Dye Only in water) | Quantum Yield ([5]; Table 6) [%] | Emission in water (λem) [5] [nm] | absorption in water (λabs) [5] [nm] | further results
CC(=O)O[C@@]12CO[C@@H]1C[C@H](O)[C@@]1(C)C(=O)[C@H](O)C3=C(C)[C@@H](OC(=O)[C@H](O)[C@@H](NC(=O)CCCCCNC(=O)CCSCC[Si]4(C)C5=CC(=[N+](C)C)C=CC5=C(c5ccccc5C(=O)[O-])c5ccc(N(C)C)cc54)c4ccccc4)C[C@@](O)([C@@H](OC(=O)c4ccccc4)C12)C3(C)C (stereo partly shown) [Compound 5] | – | – | – | – | – | – | – | – | – | – | Max Abs ([1]; Solvent MeOH/HCl): 650 nm; Max Em ([1]; Solvent MeOH/HCl): 676 nm; fluorescence signal compared with SiR-Taxol [2]: brighter signal than cells stained with SiR-Taxol
CN1CCN(c2ccc3[nH]c(-c4ccc5[nH]c(-c6ccc(OCCCCNC(=O)C7CCN(C(=O)c8ccccc8C8=C9C=CC(=[N+](C)C)C=C9[Si](C)(C)c9cc(N(C)C)ccc98)CC7)cc6)nc5c4)nc3c2)CC1 [Compound 7] | – | – | – | – | – | – | – | – | – | – | staining brightness, Compound 7 vs TO-PRO-3 ([3]; 30 min RT): unexpectedly brighter than TO-PRO-3 staining; fluorescence after a 1 minute exposure to excitation light [3]: still retained substantial fluorescence; Max Abs ([1]; Solvent TE): 672 nm; Max Em ([1]; Solvent TE): 678 nm
CN(C)c1ccc2c(c1)[Si](C)(C)C1=CC(=[N+](C)C)C=CC1=C2c1ccccc1C(=O)N1CCC(C(=O)O)CC1 [Compound 7A] | – | – | – | – | – | – | – | – | – | – | Max Abs ([1]; Solvent MeOH): 657 nm; Max Em ([1]; Solvent MeOH): 682 nm
Si,Si-dimethyl-N, N-dimethyl-SiR [Compound 13] | 635 | 655 | 635 | 655 | 630 | 642 | 0.5 | 50 | 642 | 630 | shift of absorption maxima when one methyl group on each of the two exocyclic amines was eliminated ([5]; relative to Compound 12): 30 nm; resistance to photobleaching [6]: substantially resistant to photobleaching; also recorded: much more resistant to photobleaching
Si,Si-dimethyl-N, N-tetramethyl-SiR [Compound 12] | 662 | 681 | 664 | 683 | 661 | 673 | 0.45 | 45 | 673 | 661 | shift of absorption maxima to blue when each vinyl group was changed to a methyl [5]: about 5 nm
C[n+]1c(/C=C/C=C2\C=CN(CCC[N+](C)(C)C)c3ccccc32)sc2ccccc21 [TO-PRO-3, reference compound] | – | – | – | – | – | – | – | – | – | – | fluorescence after a 1 minute exposure to excitation light [3]: little to no fluorescence was observable; also recorded: more diminished
CN1CCN(c2ccc3[nH]c(-c4ccc5[nH]c(-c6ccc(OCCCCNC(=O)CCSCC[Si]7(C)C8=CC(=[N+](C)C)C=CC8=C(c8ccccc8C(=O)[O-])c8ccc(N(C)C)cc87)cc6)nc5c4)nc3c2)CC1 (stereo not shown) [Compound 4] | – | – | – | – | – | – | – | – | – | – | mean nuclear signal intensity, higher than in cells stained with SiR-Hoechst ([7]; live HeLa, 30 min 37 °C, Cy5 channel, averaged ratios of fluorescence intensity): 48%; staining brightness compared with SiR-Hoechst ([7]; live cells): noticeably brighter
CN1CCN(c2ccc3nc(-c4ccc5nc(-c6ccc(OCCCCNC(=O)c7ccc(C(=O)[O-])c(C8=C9C=CC(=[N+](C)C)C=C9[Si](C)(C)c9cc(N(C)C)ccc98)c7)cc6)[nH]c5c4)[nH]c3c2)CC1 [SiR-Hoechst] | – | – | – | – | – | – | – | – | – | – | signal on the DAPI channel [8]: almost no signals were observed
C=C[Si]1(C=C)c2cc(N(C)C)ccc2C2(OC(=O)c3ccccc32)c2ccc(N(C)C)cc21 [Compound 11, Si,Si-Divinyl-N,N-tetramethyl-SiR] | 671 | 693 | 671 | 692 | 670 | 683 | 0.38 | 38 | 683 | 670 | –
Si-vinyl-Si-methyl-N,N-tetramethyl-SiR [Compound 10A] | – | – | 668 | 688 | – | – | – | 41 | 678 | 666 | shift of absorption maxima to blue when each vinyl group was changed to a methyl [5]: about 5 nm; photobleaching during imaging / photostability vs AF647 [9]: better photostability than AF647; target specificity, off-target or background fluorescence [9]: no off-target or background fluorescence; brightness compared with AF647 ([9]; Cy5 channel): less bright than AF647
